Measured values from patent US10189782B2, “Derivatives of indole for the treatment of cancer, viral infections and lung diseases” (BIOKINESIS, priority 2012, dated 2019).
Structures can show the parent of a compound that is named as a salt. Where two headings read alike, the source gives them in different places.

What was measured:
[1] = system: human colon carcinoma HCT-116 xenografts; assay: Anti-tumor activity in nude mice bearing subcutaneous human colon carcinoma HCT-116 xenografts; format: in vivo; details: i.p.
Protocol: The effects of one compound of the invention were studied on the tumor growth of human cancer cells in nude mice. […] The induction in nude mice was realized by subcutaneous injection in the right flank of each mouse of 10×10^6 HCT-116 cells in 200 μl serum-free medium. When the tumor volume reached 130 mm^3, mice were randomized in to 3 groups (10 mice/group).
Mice of group 2 were treated by intraperitoneal injection of cisplatin (diluted in NaCl 0.9%) at 4 mg/kg according to the treatment schedule 1Q3Dx3.
The body weight and tumor volume of mice were recorded twice a week until the end of the experiment.

K562 cells = assay: Cytotoxicity on human cancer cells (WST-1), K562; format: cell-based; details: WST-1 on D4, read-out: K562 IC50
Protocol: Evaluation of Cytotoxicity Effects on Human Cancer Cells
The effects of the compounds of the invention on the viability of human cancer cells were studied on various human cancer cell lines of differing tissue origins (A549, NCI-H460: lung cancer; MDA-MB-231: breast cancer; HCT-116, HT-29: colon cancer; MIA-PaCa-2: pancreatic cancer; K562: leukaemia). All cell lines were obtained from ATCC or ECACC. Cells were cultured in the culture media described below, under a 37° C., 5% CO2 humidified atmosphere, according to a standard operating procedure.
On D0, the cells were plated in 90 μl in 96 wells plates at densities ranging from 500 to 5,000 cells per well.
Following addition of the test substance the cells were protected from light. The solvents (DMSO and specific control solvent were added at the maximal concentration: 10 μl/well (3 wells/condition)).
On D4, the Cell Proliferation Reagent WST-1 was added to each well (10 μl/well), according to a standard operating procedure. The cells were then incubated for 30 min to 4 h at 37° C.-5% CO2. After these incubations, the 96-well plates were shaken thoroughly for 1 min with Multiskan® EX apparatus (Thermo Labsystems, France). The absorbence was measured at 450 nm, the reference wavelength being 620 nm. The analysis of the results was performed with the Ascent software 2.6 (Thermo Labsystems, France), Microsoft Excel 2003 and GraphPad Prism 4.03 softwares to give the concentration of the compounds that induces the death of 50% of the cells (IC50).

[2] = biological target: T1, Human recombinant MKlp2 motor domain1-519, His tagged (Homo sapiens, UniProt O95235); assay: Microtubule stimulated ATPase activity of the MKlp2 motor domain (Kinesin ELIPA Assay Kit); format: biochemical; details: read-out: MKIp2 IC50
T1 construct: Human recombinant MKlp2 motor domain1-519, His tagged; His; purchased Cytoskeleton MP05
T1 sequence (O95235 1-519): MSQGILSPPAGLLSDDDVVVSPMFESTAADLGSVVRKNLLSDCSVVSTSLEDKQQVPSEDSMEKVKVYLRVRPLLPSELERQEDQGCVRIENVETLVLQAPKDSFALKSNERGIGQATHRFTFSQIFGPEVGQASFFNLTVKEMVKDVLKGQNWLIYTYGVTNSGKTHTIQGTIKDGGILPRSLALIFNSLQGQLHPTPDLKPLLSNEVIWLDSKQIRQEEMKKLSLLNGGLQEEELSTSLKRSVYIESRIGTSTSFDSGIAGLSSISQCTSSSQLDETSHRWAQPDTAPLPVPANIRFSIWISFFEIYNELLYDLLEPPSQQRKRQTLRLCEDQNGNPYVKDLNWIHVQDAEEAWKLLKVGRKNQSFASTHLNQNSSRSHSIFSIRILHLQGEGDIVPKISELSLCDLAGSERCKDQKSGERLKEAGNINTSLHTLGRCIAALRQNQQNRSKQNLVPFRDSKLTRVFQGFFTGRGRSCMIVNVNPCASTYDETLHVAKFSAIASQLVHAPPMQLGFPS
Method in brief: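 Microtubule-stimulated ATPase at 22° C, with free phosphate followed in real time by MESG/PNP coupled absorbance at 360 nm. Motor mix in Pipes-NaOH pH 7.0, MgCl2, 30 μM Tx with porcine brain microtubules; reaction started with 5 mM ATP stock at 20% of volume. Kinetic read: 21 readings, 30 s apart.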

[3] = HCT-116 xenograft nude mice, Cisplatin 4 mg/kg, Cpd 38 37.5 mg/kg, starting MBW 21 g
[4] = Table 6 (prodrugs, formula II), K562 cells

SMILES | IC50 (K562 cells; [4]) [µM] | IC50 ([2]; Table 6 (prodrugs, formula II)) [µM] | further results
N.N.[Cl][Pt][Cl] [Cisplatin, cisplatin, reference compound] | – | – | Antitumor activity (tumor volume, FIG. 3) ([1]; HCT-116 xenograft bearing nude mice, cisplatin 4 mg/kg, compound 38 37.5 mg/kg): Antitumor activity was observed; MBWC D 0-D 4 (mean body weight change) [1, 3]: -1.1 g; MBWC D 0-D 7 (mean body weight change) [1, 3]: -2.54 g; MBWC D 0-D 10 (mean body weight change) [1, 3]: -3.33 g; MBWC D 0-D 14 (mean body weight change) [1, 3]: -2.22 g; MBWC D 0-D 17 (mean body weight change) [1, 3]: -1.26 g; MBWC D 0-D 21 (mean body weight change) [1, 3]: -0.38 g; MBWC D 0-D 24 (mean body weight change) [1, 3]: -0.02 g; MBWC D 0-D 28 (mean body weight change) [1, 3]: -0.1 g
N#C/C(=C\c1c[n+]([O-])ccc1-c1ccoc1)c1c[nH]c2ccc(Br)cc12 [Example 48, (Z)-3-(2-(5-bromo-1H-indol-3-yl)-2-cyanovinyl)-4-(furan-3-yl)pyridine-1-oxide] | – | – | IC50 (K562 cells; Table 4, K562 leukaemia cells): 6.71 µM; IC50 ([2]; Table 3, 22° C.): 0.73 µM
COc1cc[n+]([O-])cc1/C=C(\C#N)c1c[nH]c2ccc(Cl)cc12 [Example 49, (Z)-3-(2-(5-chloro-1H-indol-3-yl)-2-cyanovinyl)-4-methoxypyridine 1-oxide] | – | – | IC50 (K562 cells; Table 4, K562 leukaemia cells): 9.23 µM; IC50 ([2]; Table 3, 22° C.): 0.56 µM
COc1ccc2c(/C(C#N)=C/c3cc(C#N)ccc3OC)c[nH]c2c1 [Example 54, (Z)-3-(2-cyano-2-(6-methoxy-1H-indol-3-yl)vinyl)-4-methoxybenzonitrile] | – | – | IC50 (K562 cells; Table 4, K562 leukaemia cells): 0.02 µM; IC50 ([2]; Table 3, 22° C.): 1.4 µM
COc1ccncc1/C=C(\C#N)c1cn(C(C)=O)c2ccc(Br)cc12 [Example 55, (Z)-2-(1-acetyl-5-bromo-1H-indol-3-yl)-3-(4-methoxypyridin-3-yl)acrylonitrile] | 0.55 | 13.7 | –
COc1ccc(C#N)cc1/C=C(\C#N)c1cn(C(C)=O)c2ccc(Br)cc12 [Example 56, (Z)-3-(2-(1-acetyl-5-bromo-1H-indol-3-yl)-2-cyanovinyl)-4-methoxybenzonitrile] | 0.25 | 16.7 | –
COc1ccncc1/C=C(\C#N)c1cn(C(=O)C(C)(C)C)c2ccc(Br)cc12 [Example 57, (Z)-2-(5-bromo-1-pivaloyl-1H-indol-3-yl)-3-(4-methoxypyridin-3-yl)acrylonitrile] | 0.2 | 20 | –
COc1ccc(C#N)cc1/C=C(\C#N)c1cn(C(=O)C(C)(C)C)c2ccc(Br)cc12 [Example 58, (Z)-3-(2-(5-bromo-1-pivaloyl-1H-indol-3-yl)-2-cyanovinyl)-4-methoxybenzonitrile] | 0.06 | 7.5 | –
COc1ccc(C#N)cc1/C=C(\C#N)c1cn(C(=O)OC(C)(C)C)c2ccc(Br)cc12 [Example 64, (Z)-tert-butyl 5-bromo-3-(1-cyano-2-(5-cyano-2-methoxyphenyl)vinyl)-1H-indole-1-carboxylate] | 0.24 | 19.6 | –
COc1ccc(C#N)cc1/C=C(\C#N)c1cn(C(=O)CN2CCN(C)CC2)c2ccc(Br)cc12 [Example 68, (Z)-3-(2-(5-bromo-1-(2-(4-methylpiperazin-1-yl)acetyl)-1H-indol-3-yl)-2-cyanovinyl)-4-methoxybenzonitrile] | 0.03 | > 50 | –
COc1ccc(C#N)cc1/C=C(\C#N)c1cn(C(=O)C[C@H](C)N)c2ccc(Br)cc12 [Example 70, (S,Z)-3-(2-(1-(3-aminobutanoyl)-5-bromo-1H-indol-3-yl)-2-cyanovinyl)-4-methoxybenzonitrile hydrochloride] | 0.01 | > 50 | –
COc1ccc(C#N)cc1/C=C(\C#N)c1cn(C(=O)CN)c2ccc(Br)cc12 [Example 71, (Z)-3-(2-(1-(2-aminoacetyl)-5-bromo-1H-indol-3-yl)-2-cyanovinyl)-4-methoxybenzonitrile hydrochloride] | 0.01 | 1.9 | –
COc1ccc(C#N)cc1/C=C(\C#N)c1cn(C(=O)CN2CCNCC2)c2ccc(Br)cc12 [Example 72, (Z)-3-(2-(5-bromo-1-(2-(piperazin-1-yl)acetyl)-1H-indol-3-yl)-2-cyanovinyl)-4-methoxybenzonitrile Hydrochloride] | 0.01 | > 50 | –
COCCOCCOCC(=O)n1cc(/C(C#N)=C/c2cc(C#N)ccc2OC)c2cc(Br)ccc21 [Example 73, (Z)-3-(2-(5-bromo-1-(2-(2-(2-methoxyethoxy)ethoxy)acetyl)-1H-indol-3-yl)-2-cyanovinyl)-4-methoxybenzonitrile] | 0.03 | > 50 | –
COc1ccc(C#N)cc1/C=C(\C#N)c1cn(C(=O)[C@@H](N)CO)c2ccc(Br)cc12 [Example 74, (S,Z)-3-(2-(1-(2-amino-3-hydroxypropanoyl)-5-bromo-1H-indol-3-yl)-2-cyanovinyl)-4-methoxybenzonitrile hydrochloride] | 0.01 | 2.1 | –
COc1ccc(C#N)cc1/C=C(\C#N)c1cn(C(=O)C2CCC(=O)N2)c2ccc(Br)cc12 (stereo not shown) [Example 75, (Z)-3-(2-(5-bromo-1-(5-oxopyrrolidine-2-carbonyl)-1H-indol-3-yl)-2-cyanovinyl)-4-methoxybenzonitrile] | 0.02 | 4.6 | –
COc1ccc(C#N)cc1/C=C(\C#N)c1cn(C(=O)[C@H](N)CCCCN)c2ccc(Br)cc12 [Example 76, (R,Z)-3-(2-(5-bromo-1-(2,6-diaminohexanoyl)-1H-indol-3-yl)-2-cyanovinyl)-4-methoxybenzonitrile dihydrochloride] | 0.04 | 1.3 | –
COc1ccc(C#N)cc1/C=C(\C#N)c1cn(C(=O)CCOP(=O)(O)O)c2ccc(Br)cc12 [Example 79, (Z)-3-(5-bromo-3-(1-cyano-2-(5-cyano-2-methoxyphenyl)vinyl)-1H-indol-1-yl)-3-oxopropyl dihydrogen phosphate] | 0.4 | > 50 | –
